Measurements reported in patent publication US20070190046A1, “Anti-abeta antibody” (Eli Lilly and Company, priority 2004, published 2007).

Tested on: Aβ peptide naturally expressed by HEK 293 cells
Assay: Acid urea gel / western blot analysis of Aβ peptide in purified antibody from HEK 293 cell culture with γ-secretase inhibitor
Assay type: cell-based, human
Conditions: for FL (Full length hAβ40) / T2 (N-terminal truncated hAβ40, #2): no-inhibitor control 70; for T1 (N-terminal truncated hAβ40, #1): no-inhibitor control 38; for Total hAβ40: no-inhibitor control 178
Experimental: A γ-secretase inhibitor, [drawing 1] (WO 98/28268), is added to the HEK 293 cell culture in which an anti-Aβ antibody is being expressed to reduce the amount of Aβ peptide naturally expressed by cells. Cell culture samples for this example include a control culture with no inhibitor added, a culture in which 1 nM inhibitor is added at time=0 and every 24 hours thereafter for 5 days (for a 5 day transfection), and a culture in which 1 nM inhibitor is added at time=0. These samples are purified using a Protein A column as well as size exclusion chromatography. The samples are analyzed for Aβ peptide content by acid-urea gel separation and subsequent western blot analysis as detailed below.
The following protocol describes a technique for formic acid denaturation of samples and subsequent electrophoresis through an acid-urea polyacrylamide matrix:
• 1) Clean and assemble acrylamide gel plates for casting. For example, Hoeffer plates into a casting stand (16 cm×14 cm plates with 1.5 mm spacers). Clean plates thoroughly with detergent, rinse in distilled H2O(dH2O), rinse with acetone, and finally rinse with 100% EtOH. • 2) Mark plates at 10 cm (22% separating gel) and 11.75 cm (10% step gel). Making the Gel and Gel Concentrations • 1) Acrylamide (40% solution, such as pre-made Bio-Rad/cat#161-0148)
• Add urea, acrylamide, glacial acetic acid (GAA), and dH2O into 50 mL conical tubes. Vortex briefly and incubate in a 55° C. water bath. Vortex every few minutes until the urea is completely in solution. Degas 22% and 10% solutions and place solutions on ice, leaving the 4% stacker in the water bath. Pouring the Gel (at Room Temperature) • 1) Add N,N,N′,N′-tetramethylethylenediamine (TEMED) to the 22% solution and gently invert several times to mix. Next add the 10% APS (ammonium persulfate) and invert several times. Using a 25 mL pipette, slowly pour solution between the plates until it reaches the 10 cm mark. • 2) Carefully add a 750 μL overlay of 5% GAA. Use a P1000 pipette to very slowly let the 5% GAA run down one side of the glass plates onto the 22% resolving gel. • 3) Allow to polymerize at room temperature for at least 1 hour. • 4) Add the TEMED and 10% APS to the 10%-acrylamide solution in the same manner as for the 22%. Remove the overlay and add the solution until reaching the second mark at 11.75 cm. Again, carefully pour a 750 μL overlay of 5% GAA as above. Allow the gel to polymerize for 30 minutes. • 5) Prior to adding the 4% stacker solution, place the gel stand in a 37° C. incubator for 15 minutes to warm gels. This aids in the wells polymerizing correctly. Degas the 4% stacker solution and keep at 55° C. Remove the overlay. Add the TEMED, invert several times, and then add the 10% APS. Quickly pour this solution and insert a clean-dry 12-well comb (or a 15-well comb). After pouring the stacker, place the stand back in the incubator for 15 minutes then remove. Allow to polymerize on the bench top. The stacker will take at least 1.5 hours to polymerize completely. • *Note: During the polymerization steps, air pockets may appear in the resolving gel. These pockets form due to the change in temperature of the gel during and after polymerization. […] Sample Preparation • Analysis upwards of 3 mg of protein in a single lane will achieve reasonable band results. Conditions for analyzing protein are as follows.
Sample: • 30 μL of […] protein (maximum concentration of protein) • 80 μL formic acid (98%) (ICN cat#15162-90) • 20 μL Acid Loading Buffer (80% formic acid, 60% sucrose and 0.02% methyl green; • Make buffer by dissolving 6 g sucrose in ˜8 mL of ˜99% formic acid. Heat and agitate the mixture. After the sucrose has dissolved, the volume of the solution is adjusted to 10 mL with ˜99% formic acid. Add 2 μL of 1% methyl green solution.) • 1 μl β-Mercaptoethanol • *Note: Adjust volumes as needed. […]

[1] = HEK 293 culture, 1 nM inhibitor added at time=0 only
[2] = HEK 293 culture, 1 nM inhibitor at time=0 and every 24 hours for 5 days

SMILES: C[C@H](NC(=O)[C@@H](O)c1cc(F)cc(F)c1)C(=O)N[C@@H]1C(=O)N(C)c2ccccc2-c2ccccc21 [Inhibitor]
- FL (Full length hAβ40) (HEK 293 culture expressing anti-Aβ antibody, 1 nM inhibitor added at time=0 and every 24 hours for 5 days): 4 pg/μg IgG
- T1 (N-terminal truncated hAβ40, #1) [1]: 27 pg/μg IgG
- FL (Full length hAβ40) [1]: 56 pg/μg IgG
- T2 (N-terminal truncated hAβ40, #2) [1]: 52 pg/μg IgG
- Total hAβ40 [1]: 135 pg/μg IgG
- T1 (N-terminal truncated hAβ40, #1) [2]: 0 pg/μg IgG
- T2 (N-terminal truncated hAβ40, #2) [2]: 3 pg/μg IgG
- Total hAβ40 [2]: 7 pg/μg IgG
